Data from patent US10196390B2, “TYK2 inhibitors and uses thereof” (Nimbus Lakshmi, Inc., priority 2014, dated 2019).
Like-named read-outs stand apart in the source and are kept apart here.

Assays:
TYK2 = TYK2 (Homo sapiens (Human), UniProt P29597); assay: Tyk2 activity inhibition assay (radioactive kinase assay / Caliper assay); format: biochemical
Summary of the method: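 Two formats were used. Caliper off-chip mobility shift read phosphorylated peptide 30 (3 uM) after 25 min at 28° C with 9.75 nM TYK2 and ATP at 16 uM or 1 mM. Radioactive assay: 10 μM 33P-ATP, 20 μM peptide, 120 min room temp, P81 filter counting.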

JAK2-pSTAT5 = assay: GM-CSF induced pSTAT5 in human PBMC; format: cell-based; details: read-out: JAK2-pSTAT5 EC50
Procedure: Human PBMC are isolated from buffy coat and are stored frozen for assays as needed. […] 15 μl of compound or DMSO is added to the well at the desired concentrations and incubated at 1 hr at 37 C. 15 μl of stimulus (final concentration of 1.7 ng/mL IL-12) is added for 30 minutes prior to pSTAT4 and total STAT4 analysis using cell lysates prepared and analyzed by MSD reagents as per manufacturer protocol. The final DMSO concentration of compound in the assay is 0.1%.
Cells are prepared for analysis as in the above procedure and 15 μl of GM-CSF (final concentration 5 ng/mL) is added for 20 minutes prior to pSTAT5 and total STAT5 analysis using cell lysates prepared and analyzed by MSD reagents as per manufacturer protocol. The final DMSO concentration of compound in the assay is 0.1%.

JAK2 = JAK2 (Homo sapiens (Human), UniProt O60674); assay: JAK2 activity inhibition assay (radioactive kinase assay / Caliper assay); format: biochemical
Sequence of JAK2 (O60674 whole entry): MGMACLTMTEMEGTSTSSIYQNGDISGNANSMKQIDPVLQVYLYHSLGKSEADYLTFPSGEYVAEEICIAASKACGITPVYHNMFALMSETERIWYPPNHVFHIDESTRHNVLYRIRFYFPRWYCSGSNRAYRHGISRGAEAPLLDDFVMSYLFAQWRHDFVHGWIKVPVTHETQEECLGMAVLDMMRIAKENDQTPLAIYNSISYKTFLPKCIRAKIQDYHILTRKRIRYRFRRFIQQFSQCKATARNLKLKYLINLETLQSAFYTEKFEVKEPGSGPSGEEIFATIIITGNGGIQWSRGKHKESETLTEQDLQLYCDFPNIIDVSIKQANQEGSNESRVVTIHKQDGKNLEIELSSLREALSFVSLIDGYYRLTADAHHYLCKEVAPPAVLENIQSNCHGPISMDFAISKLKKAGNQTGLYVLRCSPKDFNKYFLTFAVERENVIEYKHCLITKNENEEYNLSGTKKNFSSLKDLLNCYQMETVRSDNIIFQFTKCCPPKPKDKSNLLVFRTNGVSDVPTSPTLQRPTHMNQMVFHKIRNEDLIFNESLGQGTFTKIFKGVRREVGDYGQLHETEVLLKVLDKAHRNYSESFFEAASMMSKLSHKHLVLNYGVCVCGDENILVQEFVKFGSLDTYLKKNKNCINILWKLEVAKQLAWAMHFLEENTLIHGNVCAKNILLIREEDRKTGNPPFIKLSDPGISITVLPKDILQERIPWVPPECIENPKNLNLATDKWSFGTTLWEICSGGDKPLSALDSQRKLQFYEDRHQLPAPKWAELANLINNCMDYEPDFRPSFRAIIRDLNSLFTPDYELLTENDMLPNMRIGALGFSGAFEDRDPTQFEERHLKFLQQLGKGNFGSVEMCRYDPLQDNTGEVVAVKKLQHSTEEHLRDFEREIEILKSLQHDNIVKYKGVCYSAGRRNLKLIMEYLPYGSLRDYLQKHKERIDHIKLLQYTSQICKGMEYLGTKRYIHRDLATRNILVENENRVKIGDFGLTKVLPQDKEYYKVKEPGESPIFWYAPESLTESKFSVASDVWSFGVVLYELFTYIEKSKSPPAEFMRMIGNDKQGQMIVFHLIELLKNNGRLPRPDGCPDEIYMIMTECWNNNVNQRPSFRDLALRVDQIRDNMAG
Summary of the method: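 Reaction ran 25 min at 28° C after adding peptide/ATP mix (10 mM MgCl2) to compound and enzyme in HEPES pH 7.5 buffer with Brij-35, Triton and EGTA. EDTA stop, then microfluidic off-chip separation quantified phosphorylated peptide.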

Tyk2-pSTAT4 = assay: IL-12 induced pSTAT4 in human PBMC; format: cell-based; details: read-out: Tyk2-pSTAT4 EC50
Procedure: Human PBMC are isolated from buffy coat and are stored frozen for assays as needed. Cells for assay are thawed and resuspended in complete media containing serum, then cells are diluted to 1.67 E6 cells/ml so that 120 μl per well is 200,000 cells. 15 μl of compound or DMSO is added to the well at the desired concentrations and incubated at 1 hr at 37 C. 15 μl of stimulus (final concentration of 1.7 ng/mL IL-12) is added for 30 minutes prior to pSTAT4 and total STAT4 analysis using cell lysates prepared and analyzed by MSD reagents as per manufacturer protocol. The final DMSO concentration of compound in the assay is 0.1%.

[1] = GM-CSF induced pSTAT5, human PBMC
[2] = IL-12 induced pSTAT4, human PBMC

Sequence of TYK2 (P29597 whole entry): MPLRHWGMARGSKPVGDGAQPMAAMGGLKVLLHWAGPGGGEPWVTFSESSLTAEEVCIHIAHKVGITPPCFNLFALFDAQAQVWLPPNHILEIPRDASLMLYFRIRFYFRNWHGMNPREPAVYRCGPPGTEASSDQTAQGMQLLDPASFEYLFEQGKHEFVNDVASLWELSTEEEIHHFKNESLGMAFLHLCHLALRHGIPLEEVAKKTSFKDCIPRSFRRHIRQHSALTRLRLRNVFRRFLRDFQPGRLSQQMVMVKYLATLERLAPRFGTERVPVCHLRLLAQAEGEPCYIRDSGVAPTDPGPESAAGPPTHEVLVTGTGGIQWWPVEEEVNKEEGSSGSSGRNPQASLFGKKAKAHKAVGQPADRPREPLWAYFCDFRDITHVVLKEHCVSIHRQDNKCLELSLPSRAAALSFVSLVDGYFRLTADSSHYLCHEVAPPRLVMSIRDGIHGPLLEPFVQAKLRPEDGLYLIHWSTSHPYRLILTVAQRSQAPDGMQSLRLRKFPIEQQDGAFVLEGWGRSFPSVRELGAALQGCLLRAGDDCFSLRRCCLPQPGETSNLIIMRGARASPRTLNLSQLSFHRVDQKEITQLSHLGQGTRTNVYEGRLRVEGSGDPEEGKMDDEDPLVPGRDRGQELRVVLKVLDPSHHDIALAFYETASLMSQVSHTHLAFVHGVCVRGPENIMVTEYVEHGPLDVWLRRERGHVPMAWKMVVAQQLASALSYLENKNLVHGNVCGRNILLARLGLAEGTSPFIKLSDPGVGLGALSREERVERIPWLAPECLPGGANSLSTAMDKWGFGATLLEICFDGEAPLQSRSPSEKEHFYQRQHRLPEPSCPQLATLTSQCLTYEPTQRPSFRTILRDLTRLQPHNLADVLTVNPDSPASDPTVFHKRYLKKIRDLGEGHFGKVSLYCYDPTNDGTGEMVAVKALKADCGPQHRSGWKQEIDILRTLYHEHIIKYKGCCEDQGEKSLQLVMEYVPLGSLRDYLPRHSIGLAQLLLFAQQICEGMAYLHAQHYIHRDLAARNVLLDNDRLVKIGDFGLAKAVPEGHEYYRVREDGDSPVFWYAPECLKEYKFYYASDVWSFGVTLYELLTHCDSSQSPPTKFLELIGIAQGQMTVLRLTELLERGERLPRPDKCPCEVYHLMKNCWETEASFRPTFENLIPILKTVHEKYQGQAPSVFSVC

| SMILES | Ki (TYK2) | Ki (JAK2; read-out: JAK2 Ki) | EC50 (JAK2-pSTAT5; [1]) | EC50 (Tyk2-pSTAT4; [2]) | EC50 (JAK2-pSTAT5; Homo sapiens, PBMC) | Ki (JAK2) | EC50 (Tyk2-pSTAT4; Homo sapiens, PBMC) |
| --- | --- | --- | --- | --- | --- | --- | --- |
| O=C1NCc2nc(-c3c(F)cccc3F)nc(Nc3ccc(CC(=O)N4CCN(CC(F)F)CC4)cc3)c21 [Compound I-78, 4-((4-(2-(4-(2,2-difluoroethyl)piperazin-1-yl)-2-oxoethyl)phenyl)amino)-2-(2,6-difluorophenyl)-6,7-dihydro-5H-pyrrolo[3,4-d]pyrimidin-5-one] | < 10 nM | – | – | – | > 20000 nM | 10 to 100 nM | < 2000 nM |
| C[C@H](C(=O)N1CCCCC1)c1ccc(Nc2nc(-c3c(F)cccc3F)nc3c2C(=O)NC3)cc1 [Compound I-206, (S)-2-(2,6-difluorophenyl)-4-((4-(1-oxo-1-(piperidin-1-yl)propan-2-yl)phenyl)amino)-6,7-dihydro-5H-pyrrolo[3,4-d]pyrimidin-5-one] | < 10 nM | 100 to 1000 nM | – | – | > 20000 nM | – | < 2000 nM |
| O=C1NCc2nc(-c3c(F)cccc3F)cc(Nc3ccc(NCCN4CCC(F)(F)CC4)cn3)c21 [Compound I-135, 2-(2,6-difluorophenyl)-4-((5-((2-(4,4-difluoropiperidin-1-yl)ethyl)amino)pyridin-2-yl)amino)-6,7-dihydro-5H-pyrrolo[3,4-b]pyridin-5-one] | < 10 nM | 10 to 100 nM | < 2000 nM | < 2000 nM | – | – | – |
| CC(C)(C(=O)O)c1ccc(Nc2nc(-c3c(F)cccc3F)nc3c2C(=O)NC3)cc1 [Compound I-109, 2-(4-((2-(2,6-difluorophenyl)-5-oxo-6,7-dihydro-5H-pyrrolo[3,4-d]pyrimidin-4-yl)amino)phenyl)-2-methylpropanoic Acid] | < 10 nM | 100 to 1000 nM | > 20000 nM | – | – | – | 2000 to 20000 nM |
| CC(C)NC(=O)c1ccc(Nc2cc(-c3c(F)cccc3F)nc3c2C(=O)NC3)nc1 [Compound I-138, 6-((2-(2,6-difluorophenyl)-5-oxo-6,7-dihydro-5H-pyrrolo[3,4-b]pyridin-4-yl)amino)-N-isopropylnicotinamide] | < 10 nM | 10 to 100 nM | – | – | 2000 to 20000 nM | – | < 2000 nM |
| O=C1NCc2nc(-c3c(F)cccc3Cl)nc(Nc3ccc([C@@H]4CCNC4=O)cc3)c21 [Compound I-115, (S)-2-(2-chloro-6-fluorophenyl)-4-((4-(2-oxopyrrolidin-3-yl)phenyl)amino)-6,7-dihydro-5H-pyrrolo[3,4-d]pyrimidin-5-one] | 10 to 100 nM | 100 to 1000 nM | 2000 to 20000 nM | < 2000 nM | – | – | – |
| C[C@@H](C(=O)N1CCCCC1)c1ccc(Nc2nc(-c3c(F)cccc3F)nc3c2C(=O)NC3)cc1 [Compound I-207, (R)-2-(2,6-difluorophenyl)-4-((4-(1-oxo-1-(piperidin-1-yl)propan-2-yl)phenyl)amino)-6,7-dihydro-5H-pyrrolo[3,4-d]pyrimidin-5-one] | < 10 nM | 100 to 1000 nM | – | – | 2000 to 20000 nM | – | < 2000 nM |
| CC(C)NC(=O)c1ccc(Nc2cc(-c3c(F)cccc3F)nc3c2C(=O)NC3)cc1 [Compound I-232, 4-((2-(2,6-difluorophenyl)-5-oxo-6,7-dihydro-5H-pyrrolo[3,4-b]pyridin-4-yl)amino)-N-isopropylbenzamide] | < 10 nM | 10 to 100 nM | – | – | 2000 to 20000 nM | – | < 2000 nM |
| CC1(O)CCN(c2ccc(Nc3cc(-c4c(F)cccc4F)nc4c3C(=O)NC4)nc2)CC1 [Compound I-137, 2-(2,6-difluorophenyl)-4-((5-(4-hydroxy-4-methylpiperidin-1-yl)pyridin-2-yl)amino)-6,7-dihydro-5H-pyrrolo[3,4-b]pyridin-5-one] | < 10 nM | 10 to 100 nM | < 2000 nM | < 2000 nM | – | – | – |
| O=C1NCc2nc(-c3c(F)cccc3F)nc(Nc3ccc(CC(=O)N4CCC[C@H]4CO)cc3)c21 [Compound I-16, (S)-2-(2,6-difluorophenyl)-4-((4-(2-(2-(hydroxyl-methyl)pyrrolidin-1-yl)-2-oxoethyl)phenyl)amino)-6,7-dihydro-5H-pyrrolo[3,4-d]pyrimidin-5] | < 10 nM | 100 to 1000 nM | > 20000 nM | < 2000 nM | – | – | – |
| O=C1NCc2nc(-c3c(F)cccc3F)nc(Nc3ccc(C4CCN(C5CCC5)C4=O)cc3)c21 (stereo not drawn) [Compound I-117, 4-((4-(1-cyclobutyl-2-oxopyrrolidin-3-yl)phenyl)amino)-2-(2,6-difluorophenyl)-6,7-dihydro-5H-pyrrolo[3,4-d]pyrimidin-5-one] | < 10 nM | 100 to 1000 nM | – | – | > 20000 nM | – | < 2000 nM |
| O=C1NCc2nc(-c3c(F)cccc3F)cc(Nc3ccc(N4CCC(N5CCOCC5)CC4)cn3)c21 [Compound I-142, 2-(2,6-difluorophenyl)-4-((5-(4-morpholinopiperidin-1-yl)pyridin-2-yl)amino)-6,7-dihydro-5H-pyrrolo[3,4-b]pyridin-5-one] | < 10 nM | 10 to 100 nM | > 20000 nM | < 2000 nM | – | – | – |
| COc1ccc(Nc2nc(-c3c(F)cccc3F)nc3c2C(=O)NC3)cc1 [Compound I-110, 2-(2,6-difluorophenyl)-4-((4-methoxyphenyl)amino)-6,7-dihydro-5H-pyrrolo[3,4-d]pyrimidin-5-one] | < 10 nM | > 1000 nM | – | – | > 20000 nM | – | < 2000 nM |

Now from value to compound, other results behind:

| Ki (TYK2) | Ki (JAK2; read-out: JAK2 Ki) | EC50 (JAK2-pSTAT5; [1]) | EC50 (Tyk2-pSTAT4; [2]) | SMILES | EC50 (JAK2-pSTAT5; Homo sapiens, PBMC) | Ki (JAK2) | EC50 (Tyk2-pSTAT4; Homo sapiens, PBMC) |
| --- | --- | --- | --- | --- | --- | --- | --- |
| < 10 nM | 10 to 100 nM | > 20000 nM | < 2000 nM | CC(=O)Nc1ccc(Nc2cc(-c3c(F)cccc3F)nc3c2C(=O)NC3)nc1 [Compound I-237, N-(6-((2-(2,6-difluorophenyl)-5-oxo-6,7-dihydro-5H-pyrrolo[3,4-b]pyridin-4-yl)amino)pyridin-3-yl)acetamide] | – | – | – |
| < 10 nM | 10 to 100 nM | 2000 to 20000 nM | < 2000 nM | O=C1NCc2nc(-c3c(F)cccc3F)cc(Nc3ccc(N4CCOCC4)cn3)c21 [Compound I-171, 2-(2,6-difluorophenyl)-4-((5-morpholinopyridin-2-yl)amino)-6,7-dihydro-5H-pyrrolo[3,4-b]pyridin-5-one] | – | – | – |
| < 10 nM | 10 to 100 nM | 2000 to 20000 nM | < 2000 nM | O=C1NCc2nc(-c3c(F)cccc3F)cc(Nc3ccc(OCCN4CCOCC4)cn3)c21 [Compound I-148, 2-(2,6-difluorophenyl)-4-((5-(2-morpholinoethoxy)pyridin-2-yl)amino)-6,7-dihydro-5H-pyrrolo[3,4-b]pyridin-5-one] | – | – | – |
| < 10 nM | 100 to 1000 nM | > 20000 nM | < 2000 nM | COc1ccc(Nc2cc(-c3c(F)cccc3F)nc3c2C(=O)NC3)nc1 [Compound I-167, 2-(2,6-difluorophenyl)-4-((5-methoxypyridin-2-yl)amino)-6,7-dihydro-5H-pyrrolo[3,4-b]pyridin-5-one] | – | – | – |
| < 10 nM | 10 to 100 nM | < 2000 nM | < 2000 nM | O=C1NCc2nc(-c3c(F)cccc3F)cc(Nc3ccc(NC4CCC4)cn3)c21 [Compound I-276, 4-((5-(cyclobutylamino)pyridin-2-yl)amino)-2-(2,6-difluoro-phenyl)-6,7-dihydro-5H-pyrrolo[3,4-b]pyridin-5-one] | – | – | – |
| < 10 nM | 100 to 1000 nM | > 20000 nM | < 2000 nM | CC(C)(C(=O)N1CCCC1)c1ccc(Nc2nc(-c3c(F)cccc3F)nc3c2C(=O)NC3)cc1 [Compound I-196, 2-(2,6-difluorophenyl)-4-((4-(2-methyl-1-oxo-1-(pyrrolidin-1-yl)propan-2-yl)phenyl)amino)-6,7-dihydro-5H-pyrrolo[3,4-d]pyrimidin-5-one] | – | – | – |
| < 10 nM | 10 to 100 nM | 2000 to 20000 nM | < 2000 nM | CN1CCN(c2ccc(Nc3cc(-c4c(F)cccc4F)nc4c3C(=O)NC4)nc2)CC1 [Compound I-163, 2-(2,6-difluorophenyl)-4-((5-(4-methylpiperazin-1-yl)pyridin-2-yl)amino)-6,7-dihydro-5H-pyrrolo[3,4-b]pyridin-5-one] | – | – | – |
| < 10 nM | 10 to 100 nM | 2000 to 20000 nM | < 2000 nM | O=C1NCc2nc(-c3c(F)cccc3F)cc(Nc3ccc(N4CC(O)C4)cn3)c21 [Compound I-214, 2-(2,6-difluorophenyl)-4-((5-(3-hydroxyazetidin-1-yl)pyridin-2-yl)amino)-6,7-dihydro-5H-pyrrolo[3,4-b]pyridin-5-one] | – | – | – |
